# Like-named read-outs stand apart in the source and are kept apart here.
# Legend:
# [1] = molecular target: T1, TYK2 JH2 (Homo sapiens, UniProt P29597); assay: TYK2 JH2 binding assay (KINOMEscan KdELECT competitive binding); settings: TYK2 JH2 domain, read-out: Biochemical TYK2_DiscoverX_JH2_BND_Kd
# T1 construct: purchased DiscoverX (KINOMEscan KdELECT service); host or cells: E. coli BL21-derived (T7 phage display) or HEK-293
# Protocol: Assay A: TYK2 JH2 Binding Assay
# Competitive binding studies using TKY2 JH2-domain fragments were conducted by DiscoverX using the KINOMEscan (KdELECT) platform. Kinase-tagged T7 phage strains were prepared in an E. coli host derived from the BL21 strain. E. coli were grown to log-phase and infected with […] and incubated with shaking at 32° C. until lysis. The lysates were centrifuged and filtered to remove cell debris. The remaining kinases were produced in HEK-293 cells and subsequently tagged with DNA for qPCR detection. Streptavidin-coated magnetic beads were treated with biotinylated small molecule ligands for 30 minutes at room temperature to generate affinity resins for kinase assays. The liganded beads were blocked with excess biotin and washed with blocking buffer (SeaBlock (Pierce), 1% BSA, 0.05% Tween 20, 1 mM DTT) to remove unbound ligand and to reduce non-specific binding. Binding reactions were assembled by combining kinases, liganded affinity beads, and test compounds in 1× binding buffer (20% SeaBlock, 0.17×PBS, 0.05% Tween 20, 6 mM DTT). Test compounds were prepared as 111× stocks in 100% DMSO. Kds were determined using an 11-point 3-fold compound dilution series with three DMSO control points. All compounds for Kd measurements are distributed by acoustic transfer (non-contact dispensing) in 100% DMSO. The compounds were then diluted directly into the assays such that the final concentration of DMSO was 0.9%. All reactions performed in polypropylene 384-well plate. Each was a final volume of 0.02 ml. The assay plates were incubated at room temperature with shaking for 1 hour and the affinity beads were washed with wash buffer (1×PBS, 0.05% Tween 20). The beads were then re-suspended in elution buffer (1×PBS, 0.05% Tween 20, 0.5 μM non-biotinylated affinity ligand) and incubated at room temperature with shaking for 30 minutes. The kinase concentration in the eluates was measured by qPCR.
# [2] = tested on: JAK1/TYK2 pSTAT5 (Tyr694/699) in THP-1 cell line; assay: IFNa-stimulated JAK1/TYK2 pSTAT5 (Tyr694/699) inhibition cellular assay, AlphaLISA; type: cell-based; settings: THP-1 cells, IFNa-stimulated, AlphaLISA (Assay B), read-out: Cellular_THP1_IFNa-pSTATS_TYK2
# Protocol: Assay B: JAK1/TYK2 pSTAT5 (Tyr694/699) inhibition IC50 Cellular Assays
# To evaluate the inhibition effect of compounds disclosed herein against TYK2, an IFNa-stimulated JAE1/TYK2 pSTAT5 (Tyr694/699) quantification assay was conducted in the THP-1 cell line using an AlphaLISA detection method (PerkinElmer ALSU-PST5). Compounds in DMSO were serially diluted in a 96-well plate (10 mM starting concentration, 6-fold dilutions, 8 concentrations total) prior to dispensing of 8 nL into a 384-well plate using an I.DOT non-contact liquid handler (Dispendix). Cells were collected via centrifugation at 300 ref for 5 min and resuspended in Hanks' Balanced Salt Solution (Gibco 14175-079), and 6 μl containing 2e4 cells was dispensed into each well of the 384-well plate containing test compounds or DMSO alone (final concentrations: 10000, 1666.67, 277.78, 46.30, 7.72, 1.29, 0.21 and 0.04 nM). Cells were then incubated for 1 h at 37° C. with 5% CO2 prior to the addition of 2 μL IFNa (100 ng/mL; PBL Assay Science 11175-1). Following an additional 30 min incubation at 37° C. with 5% CO2, 2 μL of 5× lysis buffer was added to each well using the I.DOT […]. Plates were sealed and incubated at RT for 10 min on a plate shaker set to 400 RPM. Cell lysates were then frozen at −80° C. before subsequent detection of pSTAT5 by AlphaLISA. At the time of the detection assay, cell lysates were thawed for 5 min at room temperature and then on a plate shaker set to 400 RPM for an additional 10 min. Following the manufacturer recommended protocol (Perkin Elmer), 5 μL of acceptor bead master mix was added to each well; plates were then resealed and incubated for 2 min at RT on a plate shaker (400 rpm) prior to an additional 2-h incubation without agitation (protected from light). Donor bead master mix, 5 uL per well, was then added to each well before 2 min of shaking (RT, 400 rpm) and 2-h incubation (RT, no shaking, protected from light). Levels of pSTAT5 protein were then measured as fluorescent signal at 615 nm with an EnVision multimode plate reader (Perkin Elmer). IC50 values were calculated in Dotmatics using the four-parameter logistic curve regression model with bottom fixed to 0 and Hill Slope fixed to −1.
# [3] = DiscoverX KINOMEscan KdELECT (Assay A)
# T1 sequence (P29597 589-875 limits assumed): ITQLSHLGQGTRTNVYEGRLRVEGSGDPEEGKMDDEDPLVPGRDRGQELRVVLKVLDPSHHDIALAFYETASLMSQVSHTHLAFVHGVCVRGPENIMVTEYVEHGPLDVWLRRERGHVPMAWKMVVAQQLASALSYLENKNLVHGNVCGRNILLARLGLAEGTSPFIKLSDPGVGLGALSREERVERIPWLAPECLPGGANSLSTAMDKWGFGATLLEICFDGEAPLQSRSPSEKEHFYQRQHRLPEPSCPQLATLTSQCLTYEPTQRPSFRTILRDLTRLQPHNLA
SMILES,"Kd [1, 3] [nM]",IC50 ([2]; Homo sapiens) [nM],IC50 [2] [nM],Kd ([1]; KINOMEscan KdELECT (Assay A)) [nM]
"CNc1ncc(-c2nc3cc(N4CCO[C@@H](C)C4)ccc3o2)c2cc(NC(=O)[C@@H]3C[C@@H]3CF)ncc12 (racemic) [Example 410, 2-(fluoromethyl)-N-(8-(methylamino)-5-(5-((S)-2-methylmorpholino)benzo[d]oxazol-2-yl)-2,7-naphthyridin-3-yl)cyclopropane-1-carboxamide]",≤ 100,≤ 500,,
"CNc1ncc(-c2nc3cc(N4CCO[C@@H](C)C4)ccc3o2)c2cc(NC(=O)[C@@H]3C[C@@H]3C(F)F)ncc12 (racemic) [Example 413, 2-(difluoromethyl)-N-(8-(methylamino)-5-(5-((S)-2-methylmorpholino)benzo[d]oxazol-2-yl)-2,7-naphthyridin-3-yl)cyclopropane-1-carboxamide]",≤ 100,≤ 500,,
"CNc1ncc(-c2nc3cc(N4CCO[C@@H](C)C4)ccc3o2)c2cc(NC(=O)[C@H]3C[C@H]3C(C)(C)O)ncc12 (racemic) [Example 416, 2-(2-hydroxypropan-2-yl)-N-(8-(methylamino)-5-(5-((S)-2-methylmorpholino)benzo[d]oxazol-2-yl)-2,7-naphthyridin-3-yl)cyclopropane-1-carboxamide]",≤ 100,≤ 500,,
"[2H]C([2H])([2H])Nc1ncc(-c2nc3ccccc3o2)c2cc(NC(=O)C3CC3F)ncc12 (racemic) [Example 433, N-(5-(benzo[d]oxazol-2-yl)-8-((methyl-d3)amino)-2,7-naphthyridin-3-yl)-2-fluorocyclopropane-1-carboxamide]",≤ 100,≤ 500,,
"[2H]C([2H])([2H])Nc1ncc(-c2nc3ccccc3o2)c2cc(NC(=O)C3CC3F)ncc12 (racemic) [Example 434, N-(5-(benzo[d]oxazol-2-yl)-8-((methyl-d3)amino)-2,7-naphthyridin-3-yl)-2-fluorocyclopropane-1-carboxamide]",≤ 100,,≤ 500,
"[2H]C([2H])([2H])Nc1ncc(-c2nc3cc(OC)ccc3o2)c2cc(NC(=O)[C@H]3C[C@H]3C)ncc12 (racemic) [Example 436, N-(5-(5-methoxybenzo[d]oxazol-2-yl)-8-((methyl-d3)amino)-2,7-naphthyridin-3-yl)-2-methylcyclopropane-1-carboxamide]",≤ 100,≤ 500,,
"CNc1ncc(-c2nc3ccc(N4CC(C)OC(C)C4)cn3n2)c2cc(NC(=O)C3CC3)ncc12 (racemic) [Example 480, N-(5-(6-(2,6-dimethylmorpholino)-[1,2,4]triazolo[1,5-a]pyridin-2-yl)-8-(methylamino)-2,7-naphthyridin-3-yl)cyclopropanecarboxamide (trans racemate)]",≤ 100,≤ 500,,
"[2H]C([2H])([2H])Nc1ncc(-c2nc3ccccn3n2)c2cc(NC(=O)C3CC3F)ncc12 (racemic) [Example 564, N-(5-([1,2,4]triazolo[1,5-a]pyridin-2-yl)-8-((methyl-d3)amino)-2,7-naphthyridin-3-yl)-2-fluorocyclopropane-1-carboxamide]",≤ 100,≤ 500,,
"[2H]C([2H])([2H])Nc1ncc(-c2nc3ccccn3n2)c2cc(NC(=O)C3CC3F)ncc12 (racemic) [Example 565, N-(5-([1,2,4]triazolo[1,5-a]pyridin-2-yl)-8-((methyl-d3)amino)-2,7-naphthyridin-3-yl)-2-fluorocyclopropane-1-carboxamide]",≤ 100,,≤ 500,
"CNc1ncc(/C=C/c2ccc3c(c2)OCC(COC)O3)c2cc(NC(=O)C3CC3)ncc12 (racemic) [Example 789, (E)-N-(5-(2-(2-(methoxymethyl)-2,3-dihydrobenzo[b][1,4]dioxin-6-yl)vinyl)-8-(methylamino)-2,7-naphthyridin-3-yl)cyclopropanecarboxamide]",,≤ 500,,≤ 100
"CNc1ncc(-c2nc3cc(C4CCN([C@@]5(C)COC[C@H]5O)CC4)ccc3o2)c2cc(NC(=O)C3CC3)ncc12 (single isomer, unassigned) [Example 261]",≤ 100,≤ 500,,
"CNc1ncc(-c2nc3cc(C4CCN([C@]5(C)COC[C@@H]5O)CC4)ccc3o2)c2cc(NC(=O)C3CC3)ncc12 (single isomer, unassigned) [Example 262]",≤ 100,≤ 500,,
"CNc1ncc(-c2nc3cc(N4CCO[C@H](C(C)(F)F)C4)ccc3o2)c2cc(NC(=O)C3CC3)ncc12 (single isomer, unassigned) [Example 331]",≤ 100,≤ 500,,
"CNc1ncc(-c2nc3cc(N4CCO[C@@H](C(C)(F)F)C4)ccc3o2)c2cc(NC(=O)C3CC3)ncc12 (single isomer, unassigned) [Example 332]",≤ 100,≤ 500,,
"CNc1ncc(-c2nc3cc(OC)ccc3o2)c2cc(NC(=O)[C@@H]3C[C@@H]3C(F)F)ncc12 (single isomer, unassigned) [Example 394]",≤ 100,≤ 500,,
"CNc1ncc(-c2nc3cc(OC)ccc3o2)c2cc(NC(=O)[C@@H]3C[C@@H]3C(F)(F)F)ncc12 (single isomer, unassigned) [Example 397]",≤ 100,≤ 500,,
"CNc1ncc(-c2nc3cc(OC)ccc3o2)c2cc(NC(=O)[C@H]3C[C@H]3C(F)(F)F)ncc12 (single isomer, unassigned) [Example 398]",≤ 100,> 500,,
"CNc1ncc(-c2nc3cc(OC)ccc3o2)c2cc(NC(=O)[C@@H]3C[C@@H]3CF)ncc12 (single isomer, unassigned) [Example 400]",≤ 100,≤ 500,,
"CNc1ncc(-c2nc3cc(OC)ccc3o2)c2cc(NC(=O)[C@H]3C[C@H]3CF)ncc12 (single isomer, unassigned) [Example 401]",≤ 100,≤ 500,,
"CNc1ncc(-c2nc3cc(N4CCO[C@@H](C)C4)ccc3o2)c2cc(NC(=O)[C@H]3C[C@H]3C(F)F)ncc12 (single isomer, unassigned) [Example 414]",≤ 100,≤ 500,,
"CNc1ncc(-c2nc3cc(N4CCO[C@@H](C)C4)ccc3o2)c2cc(NC(=O)[C@@H]3C[C@@H]3C(F)F)ncc12 (single isomer, unassigned) [Example 415]",≤ 100,≤ 500,,
"[2H]C([2H])([2H])Nc1ncc(-c2nc3cc(OC)ccc3o2)c2cc(NC(=O)[C@@H]3C[C@@H]3C)ncc12 (single isomer, unassigned) [Example 437]",≤ 100,≤ 500,,
"[2H]C([2H])([2H])Nc1ncc(-c2nc3cc(OC)ccc3o2)c2cc(NC(=O)[C@H]3C[C@H]3C)ncc12 (single isomer, unassigned) [Example 438]",≤ 100,,≤ 500,
"CNc1ncc(-c2nc3cc(N4CCOCC4)ccc3o2)c2cc(NC(=O)[C@H]3C[C@H]3CF)ncc12 (single isomer, unassigned) [Example 451]",≤ 100,≤ 500,,

# Source: US20240025906A1 (NEURON23, INC., priority 2022, published 2024)
